The record followed here is ChEMBL document CHEMBL4665886, “Assessing different thiazolidine and thiazole based compounds as antileishmanial scaffolds” (Bioorg Med Chem Lett, 2020).

The test system of data set [1] is Leishmania major. The data set is described as follows: Antileishmanial activity against Leishmania major FV1 assessed as reduction in parasite growth. The format is functional, organism-based.
For data set [2], the system named is MRC5. The data set is described as follows: Cytotoxicity against human MRC5 cells after 24 hrs by redox-sensitive dye based fluorescent assay. Type of data set: cell-based. To be noted: MRC5, 24 h.
A short description of data set [3]: Therapeutic index, ratio of average IC50 for human MRC5 and BJ cells to IC50 for antileishmanial activity against Leishmania major. The format is toxicity. To be noted: MRC5 and BJ cells (average IC50) versus Leishmania major, read-out: TI.
Data set [4] concerns BJ. The data set is described as follows: Cytotoxicity against human BJ cells after 24 hrs by redox-sensitive dye based fluorescent assay. The format is cell-based.
The test system of data set [5] is Trypanosoma brucei brucei. The data set is described as follows: Antitrypanosomal activity against bloodstream form of Trypanosoma brucei brucei 90-13 assessed as reduction in parasite growth. Type of data set: functional, organism-based.
The subject of data set [6] is Trypanosoma brucei gambiense. The data set is described as follows: Antitrypanosomal activity against bloodstream form of Trypanosoma brucei gambiense Feo assessed as reduction in parasite growth. The format is functional, organism-based.

Each structure is given as a SMILES string. Some results are limits rather than exact numbers.

A word on the IC50: it is the concentration that inhibits the measured activity by half. Regarding `C[C@@H]1CC[C@@H]2[C@@H](C1)c1sc(=O)n(CCC#N)c1SC2(C)C`, the IC50 in data set [1] was 14.8 µM; in data set [2], more than 50 µM; in data set [4], more than 50 µM. Besides, the selectivity ratio in data set [3] was more than 3.38.

For `C[C@@H]1CC[C@@H]2[C@@H](C1)c1sc(=O)n(CC(=O)Nc3ccccc3)c1SC2(C)C`, the IC50 in data set [5] was 10.2 µM; in data set [1] it was 8.68 µM; in data set [2], more than 50 µM; in data set [4], more than 50 µM. For the same compound, the selectivity ratio in data set [3] is more than 5.76.

In the case of `CC(=O)OCCC1S/C(=N\N=C\c2c(-c3ccccc3)[nH]c3ccccc23)NC1=O` (stereo not given), the figures for the IC50 in data set [1], in data set [2] and in data set [4] were 3.51 µM, 42.8 µM and 37.1 µM, respectively. Also, the selectivity ratio in data set [3] was determined as 11.3.

On to `CCCCCCCCCCCCCCCCOP(=O)([O-])OCC[N+](C)(C)C` [MILTEFOSINE], for which the IC50 was 8.18 µM in data set [1], more than 50 µM in data set [2] and more than 50 µM in data set [4]. Moreover, the selectivity ratio in data set [3] was more than 6.11.

Take `CCC1S/C(=N\N=C\c2c(-c3ccc(Cl)cc3)[nH]c3ccccc23)NC1=O` (stereo not given): the IC50 in data set [1] was found to be 22.7 µM; in data set [2] it was 8.8 µM; in data set [4] it was 7.45 µM. In addition, the selectivity ratio in data set [3] worked out at 0.36.

For `CCC1S/C(=N\N=C\c2c(-c3ccccc3)[nH]c3ccccc23)NC1=O` (stereo not given), the IC50 in data set [1] was 1.12 µM; in data set [2] it was more than 50 µM; in data set [4], more than 50 µM. Moreover, in data set [3], the selectivity ratio is more than 44.6.

Take `C[C@@H]1CC[C@@H]2[C@@H](C1)c1sc(=O)n(CC(=O)Nc3ccccc3C(F)(F)F)c1SC2(C)C`: the IC50 in data set [5] is 8.5 µM; in data set [1], 18 µM; in data set [2], more than 50 µM; in data set [4] it was more than 50 µM. For the same compound, the selectivity ratio in data set [3] is more than 2.78.

As to `CCOC(=O)C(Cc1ccccc1)N1C(=O)/C(=C/Nc2ncc(Cc3ccc(Cl)cc3Cl)s2)SC1=S` (stereo not given), the IC50 was 2.36 µM in data set [5]; 1.85 µM in data set [6]; 15.2 µM in data set [1]; more than 50 µM in data set [2]; more than 50 µM in data set [4]. In data set [3], the selectivity ratio is more than 3.3.

Consider `C=CCSc1nn2c(/C=N/N=C3/NC(=O)C(CCOC(C)=O)S3)c(-c3ccccc3)nc2s1` (stereo not given), for which the IC50 in data set [1] is 9.81 µM; in data set [2], 23.2 µM; in data set [4], 34.9 µM. Moreover, in data set [3], the selectivity ratio came to 2.96.

With `CCC1S/C(=N\N=C\c2c(-c3ccc(Br)cc3)[nH]c3ccccc23)NC1=O` (stereo not given), the figures for the IC50 in data set [1], in data set [2] and in data set [4] were 18.8 µM, 5.91 µM and 7.45 µM, respectively. Also, the selectivity ratio in data set [3] was 0.36.

As for `O=C1CS/C(=N/N=C/c2c(-c3ccc(Cl)cc3)[nH]c3ccccc23)N1Cc1ccco1`, the IC50 stood at 7.31 µM in data set [6], 12.6 µM in data set [1], 10.8 µM in data set [2] and 8.07 µM in data set [4]. In addition, the selectivity ratio in data set [3] was 0.75.

On to `CCOC(=O)c1sc(N/N=C/c2c(-c3ccc([N+](=O)[O-])cc3)[nH]c3ccccc23)nc1C`, for which the IC50 turned out to be 7.22 µM in data set [1], 23.5 µM in data set [2] and 50 µM in data set [4]. In addition, in data set [3], the selectivity ratio came to 5.09.

As to `O=C1N/C(=N/N=C/c2c(-c3ccc(Cl)cc3)[nH]c3ccccc23)SC1CCO` (stereo not given), the figures for the IC50 in data set [1], in data set [2] and in data set [4] were 15.7 µM, 13.2 µM and 22.4 µM, respectively. The selectivity ratio in data set [3] is 1.13.

Take `C[C@@H]1CC[C@@H]2[C@@H](C1)c1sc(=O)n(CC(=O)Nc3ccc(S(N)(=O)=O)cc3)c1SC2(C)C`: the IC50 in data set [5] was 14.2 µM; in data set [1], 19.8 µM; in data set [2], more than 50 µM; in data set [4], more than 50 µM. For the same compound, the selectivity ratio in data set [3] is more than 2.53.

As for `CCOC(=O)C(Cc1ccccc1)N1C(=O)/C(=C/Nc2nccs2)SC1=S` (stereo not given), the IC50 was 9.65 µM in data set [5]; 13.4 µM in data set [6]; 28.8 µM in data set [1]; more than 50 µM in data set [2]; more than 50 µM in data set [4]. Also, the selectivity ratio in data set [3] is more than 1.73.

For the compound `C[C@@H]1[C@H](O)[C@@H](C)/C=C/C=C/C=C/C=C/C=C/C=C/C=C/[C@H](O[C@@H]2O[C@H](C)[C@@H](O)[C@H](N)[C@@H]2O)C[C@@H]2O[C@](O)(C[C@@H](O)C[C@@H](O)[C@H](O)CC[C@@H](O)C[C@@H](O)CC(=O)O[C@H]1C)C[C@H](O)[C@H]2C(=O)O` [AMPHOTERICIN B], the results for the IC50 in data set [1], in data set [2] and in data set [4] were 0.5 µM, more than 50 µM and more than 50 µM, respectively. Further, in data set [3], the selectivity ratio was more than 100.

Regarding `CCOC(=O)c1sc(N/N=C/c2c(-c3ccc(Cl)cc3)[nH]c3ccccc23)nc1C`, the IC50 is 12 µM in data set [1], 25.2 µM in data set [2] and more than 50 µM in data set [4]. In addition, the selectivity ratio in data set [3] was more than 2.49.

With `C=CCN1C(=O)C(CC(=O)c2ccc(F)cc2)S/C1=N\N=C1\CC2CCC1(C)C2(C)C` (stereo not given), the IC50 is more than 50 µM in data set [5]; more than 50 µM in data set [6]; 15.3 µM in data set [1]; more than 50 µM in data set [2]; more than 50 µM in data set [4]. For the same compound, the selectivity ratio in data set [3] is more than 3.28.

Consider `O=C(CC1S/C(=N\N=C\c2c(-c3ccccc3)[nH]c3ccccc23)NC1=O)c1ccc(F)cc1` (stereo not given), for which the values for the IC50 in data set [1], in data set [2] and in data set [4] were 8.09 µM, 49.8 µM and more than 50 µM, respectively. The selectivity ratio in data set [3] is more than 6.18.

Take `C=CCN1C(=O)C(CC(=O)c2ccc(F)cc2)S/C1=N\N=C\c1ccccc1` (stereo not given): the IC50 in data set [5] is more than 50 µM; in data set [6] it was more than 50 µM; in data set [1], 47.5 µM; in data set [2], 20.1 µM; in data set [4], 21.5 µM. Also, the selectivity ratio in data set [3] was 0.45.

On to `C=CCSc1nn2c(C=O)c(-c3ccccc3)nc2s1`, for which the IC50 is 2.34 µM in data set [6], 8.94 µM in data set [1], 35.4 µM in data set [2] and more than 50 µM in data set [4]. For the same compound, in data set [3], the selectivity ratio was more than 4.78.

As to `O=C1CS/C(=N\N=C\c2c(-c3ccccc3)[nH]c3ccccc23)N1`, the IC50 in data set [1] was 1.73 µM; in data set [2], more than 50 µM; in data set [4] it was more than 50 µM. In addition, in data set [3], the selectivity ratio was more than 29.1.

For `CC1S/C(=N\N=C\c2c(-c3ccccc3)[nH]c3ccccc23)NC1=O` (stereo not given), the IC50 was 1.01 µM in data set [1], more than 50 µM in data set [2] and more than 50 µM in data set [4]. In addition, the selectivity ratio in data set [3] is more than 48.1.

For `O=C1CS/C(=N\N=C\c2c(-c3ccc(Cl)cc3)[nH]c3ccccc23)N1`, the IC50 is 7.01 µM in data set [1], more than 50 µM in data set [2] and more than 50 µM in data set [4]. Besides, the selectivity ratio in data set [3] is more than 7.13.

Consider `CCC1S/C(=N\N=C\c2c(-c3ccc([N+](=O)[O-])cc3)[nH]c3ccccc23)NC1=O` (stereo not given), for which the IC50 was determined as 14.7 µM in data set [1], 25.2 µM in data set [2] and 29.8 µM in data set [4]. Besides, the selectivity ratio in data set [3] stood at 1.87.

With `O=C(CC1S/C(=N\N=C\c2c(-c3ccccc3)[nH]c3ccccc23)NC1=O)c1ccccc1` (stereo not given), the half-maximal inhibitory concentration (IC50) in data set [1] was 9.14 µM; in data set [2], more than 50 µM; in data set [4], more than 50 µM. Besides, the selectivity ratio in data set [3] was more than 5.47.

Consider `CC1S/C(=N\N=C\c2c(-c3ccc(Br)cc3)[nH]c3ccccc23)NC1=O` (stereo not given), for which the figures for the IC50 in data set [1], in data set [2] and in data set [4] were 18.6 µM, more than 50 µM and more than 50 µM, respectively. Also, the selectivity ratio in data set [3] is more than 2.7.

In the case of `O=C1N/C(=N/N=C/c2c(-c3ccc(Br)cc3)[nH]c3ccccc23)SC1CCO` (stereo not given), the IC50 amounted to 12.8 µM in data set [1], 15.9 µM in data set [2] and 29.2 µM in data set [4]. Further, the selectivity ratio in data set [3] was determined as 1.75.

For `O=C(CC1S\C(=N/N=C\C=C\c2ccccc2)N(Cc2ccco2)C1=O)Nc1cccc(C(F)(F)F)c1` (stereo not given), the half-inhibitory concentration (IC50) was more than 50 µM in data set [5]; more than 50 µM in data set [6]; 18.4 µM in data set [1]; 12 µM in data set [2]; 15.6 µM in data set [4]. The selectivity ratio in data set [3] was 0.75.

In the case of `C[C@@H]1CC[C@@H]2[C@@H](C1)c1sc(=O)n(CC(=O)Nc3cccc(C(F)(F)F)c3)c1SC2(C)C`, the IC50 was 2.97 µM in data set [5], 14.4 µM in data set [1], more than 50 µM in data set [2] and more than 50 µM in data set [4]. Further, the selectivity ratio in data set [3] was more than 3.47.

For the compound `CCc1nn2c(C=O)c(-c3ccc([N+](=O)[O-])cc3)nc2s1`, the IC50 was 30.4 µM in data set [1], more than 50 µM in data set [2] and more than 50 µM in data set [4]. In data set [3], the selectivity ratio was more than 1.65.
